The subject of series [1] is Ovcar3-GTL catenae. In words: Catena morphology on basement membrane matrix (Matrigel) coated plates. The series is classed as cell-based, human. Conditions: for morphology on Matrigel, hyaluronidase-pretreated cells grown with 4-MU and Y27632 / morphology on Matrigel, mechanically-dissociated cells grown with 4-MU and Y27632: 1 mM 4-MU together with 50 μM Y27632, imaged after 4 days. The protocol: Ovcar3-GTL catenae were dissociated to single cells by mechanical dissociation or by hyaluronidase treatment and cultured on basement membrane matrix (Matrigel) coated plates. A similar set of cultures were grown in the presence of 1 mM 4-methylumbelliferone (4-MU) and 50 μM Y27632, the former being an hyaluronan synthase 2 (HAS2) inhibitor and the latter being a Rho-ROCK inhibitor. The cultures were imaged after 4 days.

For series [2], the system named is Ovcar3-GTL catenae. In words: Ovcar3-GTL catena drug sensitivity (proliferation, alamarBlue, 384-well). (In general: Resazurin is reduced to fluorescent resorufin, in cell work by metabolically active cells.)
Description: Cultures of Ovcar3-GTL catenae were mechanically or enzymatically dissociated to single cells. For mechanical dissociation, catena cultures were pipetted vigorously, an equal volume of M5-FCS media was added to decrease the viscosity, and the cells were pelleted. For enzymatic dissociation, catena cultures were incubated at 5 mg/ml collagenase IV (Invitrogen) for 10 min at 37° C. followed by centrifugation to pellet the cells. Cells were resuspended in M5-FCS to produce homogenous cultures of single cells which were seeded in 50 μL aliquots per well at the indicated cell densities and grown for the indicated times before addition of test compounds or other reagents.
The amount of fluorescence or absorbance is proportional to the number of living cells and corresponds to the cells metabolic activity. […] Absorbance of alamarBlue® is monitored at 570 nm, using 600 nm as a reference wavelength. Larger fluorescence emission intensity (or absorbance) values correlate to an increase in total metabolic activity from cells.
For these experiments, 25 Ovcar3-GTL catena or 250 Ovcar3-GTL catena cells were seeded per well as described above. […] Five days after adding the test compound, alamarBlue® was added to the cultures and culture absorbance was measured 48 hours later.
For series [3], the system named is catena cells. Nature of the series: Morphological effects on catena cells observed under the microscope. The series is classed as cell-based, human. Conditions: for catena cells observed under the microscope in cultures treated with high concentrations: 100 μM (rapamycin 25 μM, lovastatin acid 50 μM), cells arrested at mitosis, re-entered cell cycle without drug. How it is done:
When these cells were harvested and cultured in the absence of drugs, they re-entered the cell cycle.
These spheroids continued to grow in the presence of high concentrations of rapamycin (>50 uM) and retained their spheroid morphology.
The change in the cell-to-cell junctions might also be a resistance mechanism where cells activate signaling pathways by increasing cell-to-cell attachment or more tightly control transport of molecules between cells. […]

Series [4] deals with catena cells. Nature of the series: Exosome release from catena cells (exosome isolation and FACS). The series is classed as cell-based, human. Conditions: PMA 10 uM. The protocol: To prepare secreted and exosomal fractions from catenae, the catenae were grown in serum-free media with insulin as described in Example 28 for 5 days, until the culture was near confluent. All centrifugations were done at 4° C. to preserve protein integrity. The cells were removed by centrifugation at 300×g for 10 min. The supernatant fraction was further spun down at 2,000×g for 20 minutes and at 10,000×g for 30 min to remove cellular debris. This supernatant was subjected to ultracentrifugation at100,000×g for 2.5 h. The new supernatant fraction, containing the soluble proteins secreted by catenae (i.e., the catena secretome) was concentrated 200-fold by through a 10 kDa molecular weight cutoff filter. The resulting pellet from the ultracentrifugation was washed twice with PBS, with each wash followed by another round of ultracentrifugation under the same conditions, and kept at 4° C. for further analysis. Exosomes were isolated from Ovcar5 and A2780 human ovarian cancer cell lines that were grown as attached mesenchymal monolayers and from two ovarian cancer patient ascites samples using the same methodology. […]
The exosome isolation followed by FACS analysis allows rapid analysis of ovarian cancer stem cell exosomes both quantitatively and qualitatively. […]

In series [5] the test system is Ovcar3-GTL catenae. Nature of the series: Particle exclusion experiment with red blood cells (glycocalyx visualisation). In kind it is cell-based, human. Conditions: brief incubation with hyaluronidase, RBCs overnight. How it is done:
To visualize the glycocalyx surrounding a catena, a particle exclusion experiment was conducted using red blood cells (RBCs). Catenae were mechanically dissociated by pipetting or by brief incubation with hyaluronidase as before. RBCs from human peripheral blood were added and the mixture was incubated overnight in culture media. The cells were observed under the light microscope for the presence of a glycocalyx separating catena cells from the RBCs.

In series [6] the test system is catena cells. In words: Growth of catena cells upon disruption of the glycocalyx. In kind it is cell-based, human. How it is done:
To investigate the how catena cells grow upon disruption of the glycocalyx, catenae were dissociated to single cells with hyaluronidase treatment and plated in tissue culture treated flasks with or without 10% hyaluronidase enzyme solution (10 mg/ml) to prevent the formation of glycocalyx. In parallel, catenae were dissociated mechanically and plated in the absence of hyaluronidase.

A short description of series [7]: Viscosity of catena culture supernatant after hyaluronidase. Conditions: a few drops 10 mg/mL hyaluronidase. The protocol:
In contrast, Ovcar3-GTL epithelial cells were 98% positive for CA125 by FACS and secreted 800 units/ml of CA125 into culture media. For the ELISA, cell supernatants were collected by spinning the cultures at 300×g for 5 min to remove cells and assayed by CA125 ELISA using an automated instrument, ADVIA Centaur XP Immunoassay System (Siemens Healthcare Diagnostics Inc.).
Hyaluronan is a glycosaminoglycan found in extracellular matrix and functions to provide microenvironmental cues in a number of biological processes, including tumor development [Toole, 2004]. Supernatants prepared as above were treated with a few drops 10 mg/mL hyaluronidase (Sigma) in deionized water.

Read-outs that look alike come from different tables or passages of the source.

For `C[C@@H](N)[C@H]1CC[C@H](C(=O)Nc2ccncc2)CC1` [Y27632], in series [1], the “morphology on Matrigel, hyaluronidase-pretreated cells grown with 4-MU and Y27632” value was “the cultures did not become viscous and the attached cells formed filopodial extensions”; the “morphology on Matrigel, mechanically-dissociated cells grown with 4-MU and Y27632” value is “did not become viscous; rather, the cells attached to the plates and formed filopodial extensions”.

`O=c1[nH]cc(F)c(=O)[nH]1` [5-FU, 5-fluorouracil]: in series [2] (IC50 day 6 / IC50 day 1), the “Increase in Resistance Day 6/Day 1” value is on record as 33 fold. In series [3], the “morphological change of catenae on treatment” value (from here on “morphological change”) is given as “formation of fused chains”. Turning to `O=C(CCCCCCC(=O)Nc1ccccc1)NO` [SAHA], the “morphological change” value in series [3] is reported as “formation of tight spheroids”. Turning to `CC(=O)c1c(C)c2cnc(Nc3ccc(N4CCNCC4)cn3)nc2n(C2CCCC2)c1=O` [PD-0332991], the “Increase in Resistance Day 6/Day 1” value in series [2] (IC50 day 6 / IC50 day 1) came to 83 fold. Turning to `C[C@@H](Oc1cc(-c2cnn(C3CCNCC3)c2)cnc1N)c1c(Cl)ccc(F)c1Cl` [PF-02341066], in series [2] (IC50 day 6 / IC50 day 1), the “Increase in Resistance Day 6/Day 1” value is on record as 31 fold. `C/C(=C\c1csc(C)n1)[C@@H]1C/C=C(/C(F)(F)F)C/C=C/[C@H](C)[C@H](O)[C@@H](C)C(=O)C(C)(C)[C@@H](O)CC(=O)O1` [fludelone]: the “catena cells observed under the microscope in cultures treated with high concentrations” value (“catena cells observed” for short) in series [3] is recorded as “live, large single cells”. Regarding `CC[C@@]1(O)C(=O)OCc2c1cc1n(c2=O)Cc2cc3c(CN(C)C)c(O)ccc3nc2-1` [topotecan], the “Increase in Resistance Day 6/Day 1” value in series [2] (IC50 day 6 / IC50 day 1) was 5,000 fold. In addition, the “catena cells observed” value in series [3] is “live, large single cells”. `C=CCNC1=C2C[C@@H](C)C[C@H](OC)[C@H](O)[C@@H](C)/C=C(\C)[C@H](OC(N)=O)[C@@H](OC)/C=C\C=C(/C)C(=O)NC(=CC1=O)C2=O` [17AAG, 17-AAG/Tanespimycin]: the “Increase in Resistance Day 6/Day 1” value in series [2] (IC50 day 6 / IC50 day 1) turned out to be 33 fold. Consider `Nc1ccn([C@@H]2O[C@H](CO)[C@@H](O)[C@@H]2O)c(=O)n1` [Ara-C], for which the “Increase in Resistance Day 6/Day 1” value in series [2] (IC50 day 6 / IC50 day 1) is on record as 2,000 fold. In addition, the “catena cells observed” value in series [3] was “live, large single cells”. For `Cc1ccc2c(c1)C(=O)C1(O)CCN(c3ccccc3)C1=N2` (stereo not shown) [blebbistatin], the exosome release entry in series [4] is listed as “inhibited exosome release”.

hyaluronidase: the “morphological change” value in series [3] was “lose their polarity and form irregular aggregates”. Further, the “morphology on Matrigel, cells treated with only hyaluronidase” value in series [1] (imaged after 4 days) was “attached to extracellular matrix and grew as attached irregular aggregates”. The “glycocalyx in particle exclusion experiment” value in series [5] is reported as “completely lacked a glycocalyx”. In series [6], the “growth of catena cells after brief hyaluronidase treatment, plated without enzyme” value was “no longer formed free floating chains but rather proliferated as irregular aggregates in suspension”. Besides, the “growth of catena cells continuously treated with hyaluronidase” value in series [6] (10% hyaluronidase enzyme solution (10 mg/ml)) was “attached to tissue culture plates and formed epithelial and mesenchymal monolayers”. The “viscosity of the culture supernatant” value in series [7] is “rapidly reduced the viscosity of the supernatant”. For `C/C(=C\c1csc(C)n1)[C@@H]1C[C@@H]2O[C@]2(C)CCC[C@H](C)[C@H](O)[C@@H](C)C(=O)C(C)(C)[C@@H](O)CC(=O)O1` [Epo-B, Epothilone B], the “Increase in Resistance Day 6/Day 1” value in series [2] (IC50 day 6 / IC50 day 1) is on record as 4,000 fold. For `CO[C@H]1C[C@@H]2CC[C@@H](C)[C@@](O)(O2)C(=O)C(=O)N2CCCC[C@H]2C(=O)O[C@H]([C@H](C)C[C@@H]2CC[C@@H](O)[C@H](OC)C2)CC(=O)[C@H](C)/C=C(\C)[C@@H](O)[C@@H](OC)C(=O)[C@H](C)C[C@H](C)/C=C/C=C/C=C/1C` [rapamycin], in series [2] (IC50 day 6 / IC50 day 1), the “Increase in Resistance Day 6/Day 1” value stood at 2 fold. For iso-oxazole-fludelone, in series [2] (IC50 day 6 / IC50 day 1), the “Increase in Resistance Day 6/Day 1” value is recorded as 33,333 fold. Moreover, the “catena cells observed” value in series [3] was “live, large single cells”. As to `Cc1cc(=O)oc2cc(O)ccc12` [4-methylumbelliferone], in series [1], the “morphology on Matrigel, hyaluronidase-pretreated cells grown with 4-MU and Y27632” value was “the cultures did not become viscous and the attached cells formed filopodial extensions”; the “morphology on Matrigel, mechanically-dissociated cells grown with 4-MU and Y27632” value was “did not become viscous; rather, the cells attached to the plates and formed filopodial extensions”. For the molecule `O=c1cc(N2CCOCC2)oc2c(-c3ccccc3)cccc12` [LY294002], in series [2] (IC50 day 6 / IC50 day 1), the “Increase in Resistance Day 6/Day 1” value is 4 fold. Turning to `C/C1=C/C[C@@H](/C(C)=C/c2csc(C)n2)OC(=O)C[C@H](O)C(C)(C)C(=O)[C@H](C)[C@@H](O)[C@@H](C)CCC1` [dEpoB], in series [2] (IC50 day 6 / IC50 day 1), the “Increase in Resistance Day 6/Day 1” value is 250,000 fold. `CC[C@H](C)C(=O)O[C@H]1C[C@@H](C)C=C2C=C[C@H](C)[C@H](CC[C@@H](O)C[C@@H](O)CC(=O)O)[C@H]21` [lovastatin acid]: in series [2] (IC50 day 6 / IC50 day 1), the “Increase in Resistance Day 6/Day 1” value worked out at 2 fold. Moreover, in series [3], the “catena cells observed” value is given as “live, large single cells”. Consider `COc1cccc2c1C(=O)c1c(O)c3c(c(O)c1C2=O)C[C@@](O)(C(C)=O)C[C@@H]3O[C@H]1C[C@H](N)[C@H](O)[C@H](C)O1` [daunarubacin], for which, in series [2] (IC50 day 6 / IC50 day 1), the “Increase in Resistance Day 6/Day 1” value amounted to 133 fold. Consider `COc1cc([C@@H]2c3cc4c(cc3[C@@H](O[C@@H]3O[C@@H]5CO[C@@H](C)O[C@H]5[C@H](O)[C@H]3O)[C@H]3COC(=O)[C@H]23)OCO4)cc(OC)c1O` [etoposide], for which the “Increase in Resistance Day 6/Day 1” value in series [2] (IC50 day 6 / IC50 day 1) was found to be 125 fold.

For `CC(=O)O[C@H]1C(=O)[C@@]2(C)[C@H]([C@H](OC(=O)c3ccccc3)[C@]3(O)C[C@H](OC(=O)[C@H](O)[C@@H](NC(=O)c4ccccc4)c4ccccc4)C(C)=C1C3(C)C)[C@]1(OC(C)=O)CO[C@@H]1C[C@@H]2O` [paclitaxel], the IC50 (usually the concentration that inhibits the measured activity by half) in series [2] (Homo sapiens, read-out: IC50 Addition on Day 1) worked out at 0.012 nM. Moreover, the “catena cells observed” value in series [3] was “live, large single cells”.

In the case of `COc1cccc2c1C(=O)c1c(O)c3c(c(O)c1C2=O)C[C@@](O)(C(=O)CO)C[C@@H]3O[C@H]1C[C@H](N)[C@H](O)[C@H](C)O1` [doxorubicin], the “Increase in Resistance Day 6/Day 1” value in series [2] (IC50 day 6 / IC50 day 1) is 32 fold.

For the molecule `CO[C@@]12[C@H](COC(N)=O)C3=C(C(=O)C(C)=C(N)C3=O)N1C[C@@H]1N[C@@H]12` [mitomycin-C], the “Increase in Resistance Day 6/Day 1” value in series [2] turned out to be 60 fold. As to `CCCCCCCCCCCCCC(=O)O[C@@H]1[C@@H](C)[C@@]2(O)[C@@H](C=C(CO)C[C@]3(O)C(=O)C(C)=C[C@@H]23)[C@@H]2C(C)(C)[C@]12OC(C)=O` [phorbol 12-myristate 13-acetate], in series [4], the exosome release result is given as “induced exosomes release”.

Values taken from patent publication US20120219506A1, “Catenae: Serosal Cancer Stem Cells” (SLOAN KETTERING INSTITUTE FOR CANCER RESEARCH, priority 2009, published 2012).
